From US6753146B1, “System and method for evaluating agents which prevent oxidative damage” (priority 1999, dated 2004)

System: human elastin promoter
Assay: human elastin promoter activity by CAT assay in transgenic mouse fibroblast cultures exposed to hypoxanthine/xanthine oxidase
Format: cell-based
Details: 10,000 U/ml catalase added just prior to hypoxanthine and xanthine oxidase exposure
Source text: Fibroblasts derived from the skin of a homozygous line of transgenic mice expressing the 5.2-kb human elastin promoter, linked to a CAT reporter gene which enables measurement of elastin promoter activation, as previously described (Bernstein et al. J Invest Dermatol 105, 269-273, 1995; and Bernstein et al. Photochem Photobiol 64:369-74, 1996) were utilized. Although phenotypically normal, these mice express the human elastin promoter when assayed for CAT activity (Hsu-Wong et al. J. Biol. Chem. 269: 18072-18075, 1994; Bernstein et al. J Invest Dermatol 105, 269-273, 1995; and Bernstein et al. Photochem Photobiol 64:369-74, 1996). […]
DMEM with 10% FCS was removed, cells were rinsed in phosphate buffered saline (PBS), and DMEM was replaced without the addition of FCS. […] The optimum time span for incubation of cells with hypoxanthine/xanthine oxidase was determined by exposing cells to hypoxanthine/xanthine oxidase for 15, 30, 60, 90 and 120 minutes and determining CAT activity as outlined in Example 3. […]
To measure the expression of the human elastin promoter/CAT reporter gene construct in the skin of transgenic mice and in fibroblast cultures established from these animals, CAT activity was determined. […]

catalase
effect on the hypoxanthine/xanthine oxidase-induced increase in elastin promoter activity: fully eliminated this increase
human elastin promoter activity (CAT assay), fold of untreated controls (mean±sem) (90 minutes): 1.0±0.1 fold
